Target: T1, rat brain voltage-gated K+ channel, Kv1.3 (Rattus norvegicus, UniProt P15384)
T1 construct: expressed in transfected cells; host or cells: Xenopus oocytes (cRNA injection; pAS18 vector, SP6 transcription; clone from Prof; O. Pongs)
Assay: Assay of K+ channel inhibition: two-electrode voltage clamp of Kv1.3 expressed in Xenopus oocytes
Assay type: cell-based
Conditions: IC50 comparison with C-terminally amidated HsTX1
Description: Assay on inhibitory activity of the peptides on K^+ channels was performed in the following manner. The gene of the rat brain voltage-gated K^+ channel, Kv1.3 (Stuhmer et al., EMBO J., 8, vol. 11, pp. 3235-3244, 1988), which was graciously contributed by Prof. O. Pongs (Institute für Neurale Signalverarbeitung, Hamburg, Germany) was inserted into pAS18 vector according to a conventional technique. This vector was treated with EcoRI and then the resultant clone was transcribed in vitro with SP6 RNA polymerase using a transcription kit (Stratagene Inc., USA). The cRNA obtained was injected into Xenopus oocytes 16-72 hr prior to electrophysiological experiments.
The oocytes which had been expressed the Kv1.3 gene were added to a 100 μl-chamber filled with an ND96 solution (0.3 mM CaCl2, 1 mM MgCl2, 2 mM KCl and 96 mM NaCl in 5 mM Hepes buffer, pH 7.6) supplemented with 50 mg/ml of bovine serum albumin (BSA), and the ND96 solution was continuously perfused through reservoirs at a flow rate of 4 ml/min. The sample to be tested was separately dissolved to an ND96 solution and then added to the chamber by perfusion through a reservoir. The switching from one reservoir to another for each experiment was performed by means of Teflon valves. All measurements were made at room temperature (about 22° C.). […]

T1 sequence (P15384 whole entry): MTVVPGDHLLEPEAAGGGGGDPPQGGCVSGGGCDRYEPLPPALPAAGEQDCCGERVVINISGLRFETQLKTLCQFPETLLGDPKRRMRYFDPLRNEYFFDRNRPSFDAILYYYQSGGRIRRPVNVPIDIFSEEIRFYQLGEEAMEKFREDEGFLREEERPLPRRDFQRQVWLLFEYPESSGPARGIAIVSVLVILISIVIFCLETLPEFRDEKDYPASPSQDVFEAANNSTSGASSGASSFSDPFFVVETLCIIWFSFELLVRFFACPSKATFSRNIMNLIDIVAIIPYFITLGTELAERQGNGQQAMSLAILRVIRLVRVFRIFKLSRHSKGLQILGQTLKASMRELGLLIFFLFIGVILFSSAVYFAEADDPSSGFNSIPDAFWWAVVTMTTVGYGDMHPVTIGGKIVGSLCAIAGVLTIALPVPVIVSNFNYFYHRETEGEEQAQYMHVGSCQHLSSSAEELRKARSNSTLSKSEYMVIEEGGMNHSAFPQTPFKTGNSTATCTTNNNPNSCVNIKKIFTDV

CSCC[C@@H]1NC(=O)[C@@H]2CSSC[C@H](NC(=O)[C@H](CO)NC(=O)[C@H](C)N)C(=O)N[C@@H](CCCNC(=N)N)C(=O)N[C@@H]([C@@H](C)O)C(=O)N3CCC[C@H]3C(=O)N[C@@H](CCCCN)C(=O)N[C@@H](CC(=O)O)C(=O)N[C@H]3CSSC[C@H](NC(=O)[C@H](CCCCN)NC(=O)[C@H](CCCNC(=N)N)NC(=O)[C@H](CC(N)=O)NC1=O)C(=O)N[C@@H](CCCCN)C(=O)N[C@H]1CSSC[C@H](NC(=O)[C@@H]4CCCN4C(=O)[C@H](CC(=O)O)NC(=O)[C@H](C)NC3=O)C(=O)N[C@@H](CCCNC(=N)N)C(=O)N[C@@H](CCCCN)C(=O)N[C@@H](CCC(=O)O)C(=O)N[C@@H]([C@@H](C)O)C(=O)NCC(=O)N[C@@H](CSSC[C@@H](C(=O)O)NC(=O)[C@H](CCCNC(=N)N)NC(=O)[C@H](CC(N)=O)NC1=O)C(=O)N1CCC[C@H]1C(=O)N[C@@H](Cc1ccc(O)cc1)C(=O)NCC(=O)N[C@@H](CCCCN)C(=O)N2 [HsTX1-COOH]
activity relative to HsTX1 on Kv1.3: about one-fifth

— US6689749B1, “Neuropeptides originating in scorpion” (Suntory Limited, priority 1996, dated 2004)
